In US20030055067A1, “Antifungal composition with enhanced bioavailability” (SCHERING CORPORATION, priority 2001, published 2003):

Experiments:
[1] = Rate of sedimentation of the oral suspension (HPLC assay after shaking and rest); format: physicochemical; settings: after 3 days
Procedure: The rate of sedimentation of the liquid suspension of the present invention was determined as set forth below. Two bottles containing the suspension of the present invention were shaken and left to rest. The bottles were then sampled immediately (time zero), then after 5 minutes, 10 minutes, 30 minutes, 60 minutes and after 72 hours (three days) post shaking. The levels of posaconazole and of the preservative (Sodium Benzoate) in these samples were assayed by HPLC. HPLC methods of detection are well-known to one of skill in the art.

[2] = Randomized, open-label, 4-way crossover, single-dose bioavailability and food effect study; format: in vivo, healthy subjects; settings: for 0-hour plasma concentration of posaconazole: likely carry-over from previous doses
From the text: The relative bioavailability of the posaconazole oral suspension was compared to a solid dosage form of posaconazole in healthy subjects. The first objective was to determine the relative bioavailability of posaconazole given as an oral suspension compared to an oral solid formulation when administered with a high-fat breakfast. The second objective was to determine the effect of high-fat and non-fat food relative to fasting conditions on the oral bioavailability of the compound of formula I when given as an oral suspension. Twenty healthy subjects completed this randomized, open-label, 4-way crossover, single-dose bioavailability and food effect study of posaconazole. Subjects received each of the following four treatments separated by at least a 7 day washout period: [table] Subjects were randomized to either remain fasted (Treatment A), to receive a standardized high fat breakfast (Treatment B or D) or a standardized non-fat breakfast (Treatment C). Meals were consumed in a 20-minute period prior to the morning drug administration and subjects received the appropriate treatment within 5 minute of completing the breakfast. […] The area under the plasma concentration-time curve from time zero to the final quantifiable sampling time [AUC(tf)] was calculated using the linear trapezoidal method and extrapolated to infinity (I) as follows: [formula] where C(tf) is the estimated concentration determined from linear regression at time, tf. Total body clearance was calculated by the following: CL=Dose/AUC(I) The apparent volume of distribution ([…]) was calculated from the ratio of the total body clearance to the terminal phase rate constant (K). Summary statistics were calculated for the plasma suspension formulation of the present invention compared to a prior art tablet formulation concentration-time data at each time point and the derived pharmacokinetic parameters. The original scale and log-transformed Cmax and AUC values were analyzed using an analysis of variance (ANOVA). […]

[3] = Lipophilicity and water solubility (background statement); format: physicochemical
[4] = system: Aspergillis, Candida, Cryptococcus, Fusarium, and other opportunistic fungi; settings: broad range of fungi; cited from earlier work

CC[C@@H]([C@H](C)O)n1ncn(-c2ccc(N3CCN(c4ccc(OC[C@@H]5CO[C@@](Cn6cncn6)(c6ccc(F)cc6F)C5)cc4)CC3)cc2)c1=O [posaconazole]
sedimentation of posaconazole [1]: not sedimented
0-hour plasma concentration of posaconazole ([2]; Subject 20, Treatment A): 22.5 ng/mL
0-hour plasma concentration of posaconazole ([2]; Subject 20, Treatment B): 8.5 ng/mL
mean terminal t½ ([2]; independent of treatment): about 22 hour
lipophilicity [3]: highly lipophilic
water solubility [3]: extremely low
antifungal activity [4]: potent
